From publication PMC4010452, “Modulation of Mouse Embryonic Stem Cell Proliferation and Neural Differentiation by the P2X7 Receptor” (PLoS ONE, 2014) come the findings set out here.

The target in this assay is T1, P2X7 receptor (Mus musculus, UniProt Q9Z1M0).
T1 construct: gene P2rx7
T1 sequence (Q9Z1M0 1-595): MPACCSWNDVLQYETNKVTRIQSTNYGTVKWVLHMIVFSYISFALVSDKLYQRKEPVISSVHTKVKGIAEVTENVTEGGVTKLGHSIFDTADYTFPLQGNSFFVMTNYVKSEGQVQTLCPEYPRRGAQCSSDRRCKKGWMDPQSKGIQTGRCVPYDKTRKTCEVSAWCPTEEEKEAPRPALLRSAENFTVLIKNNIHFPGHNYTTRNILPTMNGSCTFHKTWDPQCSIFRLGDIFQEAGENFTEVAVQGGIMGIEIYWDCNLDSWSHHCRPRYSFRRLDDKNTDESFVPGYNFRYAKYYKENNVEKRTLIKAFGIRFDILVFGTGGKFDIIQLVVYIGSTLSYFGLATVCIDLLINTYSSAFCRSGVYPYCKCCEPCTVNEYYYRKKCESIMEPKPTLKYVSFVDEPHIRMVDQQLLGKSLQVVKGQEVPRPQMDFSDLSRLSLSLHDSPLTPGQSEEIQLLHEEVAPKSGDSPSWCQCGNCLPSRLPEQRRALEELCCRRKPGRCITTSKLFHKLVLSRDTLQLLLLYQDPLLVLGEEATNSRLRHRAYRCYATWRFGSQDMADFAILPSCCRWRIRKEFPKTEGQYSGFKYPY
Put plainly: agonist-induced intracellular calcium microfluorimetry and single-cell calcium imaging in mouse E14Tg2A ES cells (native receptor). Type of assay: cell-based. A general note: Calcium flux is commonly read through the fluorescence of an indicator in the cells.

On to `Nc1ncnc2c1ncn2[C@@H]1O[C@H](COP(=O)(O)OP(=O)(O)OP(=O)(O)O)[C@@H](O)[C@H]1O` [ATP], for which the EC50 (as a rule, the concentration that produces a half-maximal response) was 4.1 ± 1.8 µM.
